From patent publication US20240076667A1, “APPLICATION OF ANTISENSE OLIGONUCLEOTIDE TARGETING PBX1 PROMOTER REGION G-QUADRUPLEX IN PREPARATION OF MEDICINE FOR TREATING MELANOMA” (JILIN UNIVERSITY, priority 2022, published 2024)
“Also recorded” adds a separate entry of the source.

Tests used:
[1] = system: B16-F10 cells; assay: Colony forming assay, B16-F10; format: cell-based, mouse
Experimental: (§1) Colony forming assay: for the colony forming assay, A375 and B16-F10 cells are seeded on 6-well plates with the density of 500-1000 cells. After two weeks, staining is performed by using 1% crystal violet at room temperature, rinsing is performed with PBS and tap water, and the number of colonies is counted.

[2] = system: A375 cells; assay: Colony forming assay, A375; format: cell-based, human
Experimental: as §1

[3] = system: patient-derived melanoma xenograft (PDX); assay: PDX model of melanoma in NCG mice; format: in vivo; conditions: PDX; intravenous injection 20 mg/kg every two days for 21 days; vs PBX1 ASO scramble
Experimental: PDX model of melanoma: fresh tumor tissues are collected immediately after surgery, placed in RPMI 1640 medium containing penicillin/streptomycin (100 U/ml; 100 μg/ml), fungal zone (1 μg/ml) and Genta Mycin (50 μg/ml) (all from Gibco, USA) (4,5). According to the institutional review and the ethical guidelines for this study approved by the Ethics Committee of the Second Hospital of Jilin University, fresh tumor samples from patients suffering from melanoma are collected for transplantation with informed consent. The mice were kept and all procedures are performed under the approval and supervision of the Institutional Animal Care and Use Committee (IACUC) of the School of Public Health of Jilin University (Changchun, China). Necrotic tissues are excised before transplantation, and tumor tissues are minced to a size of 2×2×2 mm^3, and implanted subcutaneously in the flank of 6-week-old NCG male mice to generate first-generation (F1) PDX mice. Successfully transplanted tumor models are passaged and stored using standard methods. H&E staining is used to evaluate the morphology of patient tumor specimens and xenografts of established PDX models. Treatment with ASO Scr or ASO (intravenous injection, 20 mg/kg) is initiated when the tumor volume of the mice reached 220-280 mm^3. Tumor growth and body weight measurements are performed. Tumors are dissected at the end of treatment for further processing for RNA, protein and histological analysis.
Control:mG*mT*mC*mC*mA*mC*mA*mA*mA*mC*mA*mC*mA*mA*mC*mT*mC* mC*mT*mG*). […] This example also establishes short-term cultures of patient-derived melanoma xenograft (PDX)-derived tumor cells (PDCs) (FIG. 5D). […] To further expand the analysis, this embodiment establishes the PDX model of melanoma, and […] is administered intravenously (intravenous injection) every two days for 21 days.

[4] = system: B16-F10 cells; assay: Cell scratch assay (migration), B16-F10; format: cell-based, mouse; conditions: PDS (2 μM), TMPyP4 (5 μM), 24 h
Experimental: Cell scratch assay: the cells are seeded in 12-well plate and grown for 24 hours to 80% confluency. The bare region is created by the tip across the diameter of the dish. After being treated with PDS (2 μM) and TMPyP4 (5 μM) for 24 h, the cells are washed with PBS and photographed under the microscope (Leica, Germany) to evaluate cell migration. Six micrographs are taken for each person.

[5] = system: PBX1 dG1; assay: PBX1 dual luciferase reporter assay in HEK293T, A375 and B16-F10 cells; format: cell-based
Experimental: Dual luciferase reporter assay: for the PBX1 luciferase reporter gene assay, PBX1 luciferase reporter gene plasmid and pRL-TK plasmid are co-transfected into HEK293T, A375 and B16-F10 cells in the 96-well plate by Lipofectamine 2000 (Invitrogen, USA). 48 hours after transfection, cells are collected and analyzed using the Dual-Luciferase® Reporter Assay System (Promega, USA). The firefly activity is normalized to the activity of Renilla luciferase.
(§2) Given that G4s in the promoter and transcript are involved in the regulation of transcription and translation related processes, it is speculated that dG1 in the PBX1 promoter may regulate the transcription of PBX1, and rG1 in 5′UTR of the PBX1 transcript may regulate the transcription of PBX1. In addition, the luciferase reporter assay is first performed. The dG1 promoter sequence (designated as dG1-wt) and mutated dG1 promoter sequence (designated as dG1-mut) of PBX1 are cloned into pGL3 luciferase reporter vector. […] In addition, this embodiment further constructs an enhanced green fluorescent protein (EGFP) reporter gene system, to study the effect of rG1 on translation. The rG1 transcript sequence (designated as rG1-wt) and mutant rG1 transcript sequence (designated as rG1-mut) of PBX1 are fused to 5′UTR of EGFP, and the reporter gene vector is transfected into HEK293T cells. By confocal fluorescence experiments, the EGFP fluorescence intensity of rG1-WT is less than that of rG1-MUT, and PDS or TMPyP4 decreases the fluorescence intensity of rG1-WT in HEK293T cells (FIG. 3B). Finally, this embodiment studies the potential effect of PBX1 G4s on PBX1 expression of A375 and B16-F10 cells.

[6] = system: PBX1 rG1; assay: EGFP reporter gene system, confocal fluorescence; format: cell-based; conditions: HEK293T cells; 2 μM PDS or 5 μM TMPyP4
Experimental: Construction of an EGFP reporter vector: the reporter vector (Inovogen Tech. Co., Beijing, China) with pLV-EGFP-N as the backbone gene encodes the rG1 site of the PBX1 5′UTR sequence. By using the Strata gene rapid change site-directed mutagenesis kit, point mutation is performed on the rG1 site.
as §2, with “Finally, this embodiment studies the potential effect of PBX1 G4s on PBX1 expression of A375 and B16-F10 cells.” left out

[7] = system: B16-F10 cells; assay: In vitro cell invasion experiment (Transwell), B16-F10; format: cell-based, mouse; conditions: Transwell with Matrigel, 24 hours
Experimental: In vitro cell invasion experiment: in the Transwell invasion experiment, Matrigel is used as an invasive supraluminal membrane barrier (Corning, USA). The lower transwell chamber is filled with 2.5% serum containing DMEM medium. The cells are suspended at an upper chamber. After incubation for 24 hours, the filter is removed, and cells on the membrane are fixed by using methanol. Cells stained with 0.5% crystal violet infiltrate the surrounding matrix. The dye is washed with water and the cells are examined under the microscope (Leica, Germany). Six micrographs are taken for each person.

[8] = system: A375 cells; assay: Cell proliferation assay (CCK-8), A375; format: cell-based, human; conditions: dose-dependent manner
Experimental: Cell proliferation assay: cell viability is determined by the cell counting kit-8 (CCK-8) according to the manufacturer's instructions (Abcam, UK). Cells (2000 cells per well) are incubated in the 96-well plate in triplicate and then added to each well at various time points at the final concentration of 10%, and incubation is continued at 37° C. After 60 minutes, the absorbance of the sample is measured at the wavelength of 450 nm. Data is analyzed using GraphPad Prism software.

SMILES	colony formation [1]	colony formation [2]	tumor growth [3]	migration [4]	luciferase activity of dG1-mut transfected cells [5]	luciferase activity of dG1-wt transfected cells [5]	EGFP fluorescence intensity of rG1-WT [6]	invasion [7]	cell viability (activity) measured by CCK8 [8]
NCCOc1cc(C(=O)Nc2cc(OCCN)c3ccccc3n2)nc(C(=O)Nc2cc(OCCN)c3ccccc3n2)c1 [PDS, Pyridostatin]	inhibits	inhibits	inhibits	inhibit	does not affect	remarkably inhibits	decreases	inhibit	reduce; also recorded: remarkably reduces
C[n+]1ccc(-c2c3nc(c(-c4cc[n+](C)cc4)c4ccc([nH]4)c(-c4cc[n+](C)cc4)c4ccc([nH]4)c(-c4cc[n+](C)cc4)c4nc2C=C4)C=C3)cc1 [TMPyP4]	inhibits	inhibits	–	inhibit	does not affect	remarkably inhibits	decreases	inhibit	reduce; also recorded: remarkably reduces
